{"source": "patent US10166246B2", "about": "“TGR5 agonist complexes for treating diabetes and cancer” (City of Hope, priority 2014, dated 2019)", "key": {"[1]": {"conditions": "in vivo; cited from earlier work"}, "TGR5 [2]": {"biological_target": "T1, TGR5 (Homo sapiens, UniProt Q8TDU6)", "T1 sequence (Q8TDU6 1-330)": "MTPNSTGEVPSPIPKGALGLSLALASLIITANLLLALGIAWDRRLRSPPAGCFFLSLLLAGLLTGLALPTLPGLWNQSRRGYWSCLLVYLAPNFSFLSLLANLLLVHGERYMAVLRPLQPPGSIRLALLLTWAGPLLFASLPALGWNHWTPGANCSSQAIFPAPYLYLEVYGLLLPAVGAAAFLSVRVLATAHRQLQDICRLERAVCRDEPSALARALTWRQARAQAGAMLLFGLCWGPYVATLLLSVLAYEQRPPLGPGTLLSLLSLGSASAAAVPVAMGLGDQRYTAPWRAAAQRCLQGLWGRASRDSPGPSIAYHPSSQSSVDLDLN", "assay": "cAMP assay in HEK293 overexpressing TGR5", "format": "cell-based", "parameters": "expressed in transfected cells; host or cells: HEK293 overexpressing TGR5", "conditions": "HEK293 cells, in vitro", "procedure": "(§1) Data analysis to determine EC50 values was performed with GraphPad Prism software using a cAMP standard curve and sigmoidal dose-response (variable slope) equation based on dose-response curves with tested compounds.\nas §1"}, "[3]": {"conditions": "single oral dose; cited from earlier work"}, "TGR5 [4]": {"biological_target": "T1, TGR5", "conditions": "HEK293 cells with human TGR5, pCRE-Luc; 0.1-50 μM test concentrations", "quoted_text": "HEK293 overexpressing TGR5 cells were transfected 100 ng pCRE-luc reporter along with 10 ng pCMV-beta-galactosidase by HiPerfect (Qiagen).\nComplexes were evaluated for their ability to activate TGR5 at 0.1, 0.5, 1, 5.0, 10, 30, and 50 μM test concentrations.\nCell Culture: HEK293 and HEK293-TGR5 overexpressing cells were cultured in high glucose Dulbecco's modified Eagle's medium (DMEM, CELLGRO®, Manassas, Va.) with L-glutamine supplemented with 10% (vol/vol) heat-inactivated fetal bovine serum (Gemini Bio-Products, West Sacramento, Calif.). TGR5-overexpressing HEK293 cells were maintained in G418-containing media until plating. Cells were plated in 24-well plates (5×10^5 cells/well) 24 h before transfection. Prior to transfection, cells were rinsed with PBS, and media was replaced with DMEM without phenol red supplemented with 10% super-stripped FBS.\nTGR5 and FXR Luciferase Assay: To evaluate TGR5 activity of compounds, cells were transfected 100 ng pCRE-luc reporter along with pCMV-galactosidase (10 ng) as an internal control for normalization of transfection efficiency. Plasmids were complexed with 2 mL of FUGENE® 6 reagent (Promega, Madison, Wis.) in OPTIMEM® (Invitrogen, Carlsbad, Calif.) and cells were transfected for 18 h. The following day, cells were treated with vehicle and appropriate ligand as indicated. […]"}, "db/db mice": {"tested_on": "db/db mice", "assay": "5-week treatment of diabetic db/db mice (body weight, fasting glucose, liver and kidney weight, HbA1c)", "format": "in vivo, mouse", "conditions": "for significance of the effect in body weight loss: 30 mg/kg BW (0.057 mmol), 5 weeks", "procedure": "FIG. 8 Effect on body weight of administration of ligand and complex administered […] for 5 weeks in db/db mice (seven per group), with vehicle controls.\nFor each experiment, there were 8 groups of mice representing the different treatments. […] Eleven-week old male normal and high-fat fed C57BL/6J mice and 7-week old male B6.BKS-Lepr^db (db/db) mice (The Jackson Laboratory, Bar Harbor, Me.) were acclimatized for at least one week on a 12-hour light/dark cycle at 68-72° F., then fed either a standard (10% fat kcal) or high-fat diet containing 60 kcal % fat (Research Diets, Inc., New Brunswick, N.J.) for the duration of the study. All animals were access to their respective diets and water ad libitum. […] For each group, each mouse was given the drugs via i.p. injection, three times a week (Monday, Wednesday, Friday) for a total duration of 5 weeks. Before, and in the course of treatment, body weight, water and food consumption (by weighing before and after weights of water bottles and leftover food in individual cages) were measured 2×per week, while blood glucose measurements were conducted weekly via tail-bleeding while on physical restraint using disposable cone-shaped plastic holders (Kent Scientific). Various tissues (liver, skeletal muscles and adipose tissues) and blood (for lipid, insulin and glucose measurements), were collected and analyzed at the end of the experiment. Before termination of the study, glucose tolerance tests were performed on each mouse on the last week of treatment. For the glucose tolerance test (GTT), after an overnight fast, mice were injected intraperitoneally with glucose (2 g/kg body weight). […] Mice were euthanized by CO2 asphyxiation according to the Association for Assessment and Accreditation of Laboratory Animal Care International guidelines. The different experimental groups had at least 8 animals each."}}, "note": "Entries after “also recorded” stand apart in the source; their conditions may differ."}
{"compound": "CN(C)C(=N)NC(=N)N", "note": "[Metformin, N,N-dimethylbiguanidine]", "values": [{"measurement": "decrease of the level of HbA1c", "setting": "[1]", "result": "1-2%"}, {"measurement": "direct activation of TGR5 to induce cAMP formation", "setting": "TGR5 [2]", "result": "not a ligand for the TGR5; also recorded: did not directly activate TGR5"}, {"measurement": "time until undetectable in blood plasma", "setting": "[3]", "result": "≤ 24", "unit": "h"}]}
{"compound": "Metformin-OA [DY310]", "values": [{"measurement": "potency in luciferase assays against TGR5 compared to the native TGR5 agonist", "setting": "TGR5 [4]", "result": "greater potency in luciferase assays than oleanolic acid"}]}
{"compound": "metformin-6eCDCA complex [DY305]", "values": [{"measurement": "significance of the effect in body weight loss", "setting": "db/db mice; male db/db mice", "result": "not significant"}, {"measurement": "effect on body weight", "setting": "db/db mice; male db/db mice, daily for 5 weeks", "result": "effective in body weight loss"}]}
{"compound": "metformin-6eUDCA complex [DY306]", "values": [{"measurement": "effect on increase of HbA1c", "setting": "db/db mice; db/db mice", "result": "dose dependently blocked the increase of HbA1c"}, {"measurement": "glycemic control", "setting": "db/db mice; db/db mouse model", "result": "improved glycemic control"}, {"measurement": "significance of the effect in body weight loss", "setting": "db/db mice; male db/db mice", "result": "not significant"}]}
